# According to patent US9630977B2, “Cephalosporin derivatives and pharmaceutical compositions thereof” (Legochem Biosciences, Inc., priority 2011, dated 2017):
# Test system: E. cloacae β19
# Experiment: In vitro antibacterial activity test (broth microdilution)
# Format: cell-based
# Conditions: Enterobacter cloacae, read-out: MIC90
# Summary of the method: (§1)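 Compounds were dissolved in DMSO at 10,240 ug/mL stock, diluted two-fold in DMSO and then twenty-fold in sterile water. Final test concentrations spanned 0.0626 to 128 ug/mL with 2.5% (V/V) DMSO, and MIC90 was read by CLSI broth microdilution.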
row,SMILES,MIC90 [µg/mL]
1,CC(C)(O/N=C(\C(=O)N[C@@H]1C(=O)N2C(C(=O)[O-])=C(/C=C/C[n+]3cnc(N)c(NC(=O)c4cc(=O)c(O)cn4O)c3)CSC12)c1csc(N)n1)C(=O)O (stereo partly shown) [Compound 14],64

# Test system: A. calcoaceticus ATCC15473
# Experiment: as above
# Format: cell-based
# Conditions: Acinetobacter calcoaceticus; A. calcoaceticus ATCC15473; read-out: MIC90
# Summary of the method: as §1
row,SMILES,MIC90 [µg/mL]
1,CC(C)(O/N=C(\C(=O)N[C@@H]1C(=O)N2C(C(=O)[O-])=C(/C=C/C[n+]3cnc(N)c(NC(=O)c4cc(=O)c(O)cn4O)c3)CSC12)c1csc(N)n1)C(=O)O (stereo partly shown) [Compound 14],0.25

# Test system: A. baumannii 49
# Experiment: as above
# Format: cell-based
# Conditions: Acinetobacter baumannii; A. baumannii 49; read-out: MIC90
# Summary of the method: as §1
row,SMILES,MIC90 [µg/mL]
1,CC(C)(O/N=C(\C(=O)N[C@@H]1C(=O)N2C(C(=O)[O-])=C(/C=C/C[n+]3cnc(N)c(NC(=O)c4cc(=O)c(O)cn4O)c3)CSC12)c1csc(N)n1)C(=O)O (stereo partly shown) [Compound 14],> 128

# Test system: K. pneumoniae β10
# Experiment: as above
# Format: cell-based
# Conditions: Klebsiella pneumoniae; K. pneumoniae β10; read-out: MIC90
# Summary of the method: as §1
row,SMILES,MIC90 [µg/mL]
1,CC(C)(O/N=C(\C(=O)N[C@@H]1C(=O)N2C(C(=O)[O-])=C(/C=C/C[n+]3cnc(N)c(NC(=O)c4cc(=O)c(O)cn4O)c3)CSC12)c1csc(N)n1)C(=O)O (stereo partly shown) [Compound 14],0.5

# Test system: A. baumannii 46
# Experiment: as above
# Format: cell-based
# Conditions: Acinetobacter baumannii; A. baumannii 46; read-out: MIC90
# Summary of the method: as §1
row,SMILES,MIC90 [µg/mL]
1,CC(C)(O/N=C(\C(=O)N[C@@H]1C(=O)N2C(C(=O)[O-])=C(/C=C/C[n+]3cnc(N)c(NC(=O)c4cc(=O)c(O)cn4O)c3)CSC12)c1csc(N)n1)C(=O)O (stereo partly shown) [Compound 14],2

# Test system: M. catarrhalis 2524
# Experiment: as above
# Format: cell-based
# Conditions: Moraxella catarrhalis; M. catarrhalis 2524; read-out: MIC90
# Summary of the method: as §1
row,SMILES,MIC90 [µg/mL]
1,CC(C)(O/N=C(\C(=O)N[C@@H]1C(=O)N2C(C(=O)[O-])=C(/C=C/C[n+]3cnc(N)c(NC(=O)c4cc(=O)c(O)cn4O)c3)CSC12)c1csc(N)n1)C(=O)O (stereo partly shown) [Compound 14],0.25

# Test system: K. pneumoniae β14
# Experiment: as above
# Format: cell-based
# Conditions: Klebsiella pneumoniae, read-out: MIC90
# Summary of the method: as §1
row,SMILES,MIC90 [µg/mL]
1,CC(C)(O/N=C(\C(=O)N[C@@H]1C(=O)N2C(C(=O)[O-])=C(/C=C/C[n+]3cnc(N)c(NC(=O)c4cc(=O)c(O)cn4O)c3)CSC12)c1csc(N)n1)C(=O)O (stereo partly shown) [Compound 14],8

# Test system: P. aeruginosa 1912E
# Experiment: as above
# Format: cell-based
# Conditions: Pseudomonas aeruginosa, 1912E, read-out: MIC90
# Summary of the method: as §1
row,SMILES,MIC90 [µg/mL]
1,CC(C)(O/N=C(\C(=O)N[C@@H]1C(=O)N2C(C(=O)[O-])=C(/C=C/C[n+]3cnc(N)c(NC(=O)c4cc(=O)c(O)cn4O)c3)CSC12)c1csc(N)n1)C(=O)O (stereo partly shown) [Compound 14],1

# Test system: K. pneumoniae β9
# Experiment: as above
# Format: cell-based
# Conditions: Klebsiella pneumoniae, K. pneumoniae β9; read-out: MIC90
# Summary of the method: as §1
row,SMILES,MIC90 [µg/mL]
1,CC(C)(O/N=C(\C(=O)N[C@@H]1C(=O)N2C(C(=O)[O-])=C(/C=C/C[n+]3cnc(N)c(NC(=O)c4cc(=O)c(O)cn4O)c3)CSC12)c1csc(N)n1)C(=O)O (stereo partly shown) [Compound 14],2

# Test system: K. pneumoniae β11
# Experiment: as above
# Format: cell-based
# Conditions: Klebsiella pneumoniae; K. pneumoniae β11; read-out: MIC90
# Summary of the method: as §1
row,SMILES,MIC90 [µg/mL]
1,CC(C)(O/N=C(\C(=O)N[C@@H]1C(=O)N2C(C(=O)[O-])=C(/C=C/C[n+]3cnc(N)c(NC(=O)c4cc(=O)c(O)cn4O)c3)CSC12)c1csc(N)n1)C(=O)O (stereo partly shown) [Compound 14],64

# Test system: K. pneumoniae β13
# Experiment: as above
# Format: cell-based
# Conditions: Klebsiella pneumoniae, K. pneumoniae β13; read-out: MIC90
# Summary of the method: as §1
row,SMILES,MIC90 [µg/mL]
1,CC(C)(O/N=C(\C(=O)N[C@@H]1C(=O)N2C(C(=O)[O-])=C(/C=C/C[n+]3cnc(N)c(NC(=O)c4cc(=O)c(O)cn4O)c3)CSC12)c1csc(N)n1)C(=O)O (stereo partly shown) [Compound 14],0.5

# Test system: E. coli β4
# Experiment: as above
# Format: cell-based
# Conditions: Escherichia coli, read-out: MIC90
# Summary of the method: as §1
row,SMILES,MIC90 [µg/mL]
1,CC(C)(O/N=C(\C(=O)N[C@@H]1C(=O)N2C(C(=O)[O-])=C(/C=C/C[n+]3cnc(N)c(NC(=O)c4cc(=O)c(O)cn4O)c3)CSC12)c1csc(N)n1)C(=O)O (stereo partly shown) [Compound 14],1

# Test system: P. aeruginosa 6065Y
# Experiment: as above
# Format: cell-based
# Conditions: Pseudomonas aeruginosa, read-out: MIC90
# Summary of the method: as §1
row,SMILES,MIC90 [µg/mL]
1,CC(C)(O/N=C(\C(=O)N[C@@H]1C(=O)N2C(C(=O)[O-])=C(/C=C/C[n+]3cnc(N)c(NC(=O)c4cc(=O)c(O)cn4O)c3)CSC12)c1csc(N)n1)C(=O)O (stereo partly shown) [Compound 14],2

# Test system: P. aeruginosa 37
# Experiment: as above
# Format: cell-based
# Conditions: Pseudomonas aeruginosa, 37, P. aeruginosa 37; read-out: MIC90
# Summary of the method: as §1
row,SMILES,MIC90 [µg/mL]
1,CC(C)(O/N=C(\C(=O)N[C@@H]1C(=O)N2C(C(=O)[O-])=C(/C=C/C[n+]3cnc(N)c(NC(=O)c4cc(=O)c(O)cn4O)c3)CSC12)c1csc(N)n1)C(=O)O (stereo partly shown) [Compound 14],16

# Test system: P. aeruginosa 43
# Experiment: as above
# Format: cell-based
# Conditions: Pseudomonas aeruginosa; P. aeruginosa 43; read-out: MIC90
# Summary of the method: as §1
row,SMILES,MIC90 [µg/mL]
1,CC(C)(O/N=C(\C(=O)N[C@@H]1C(=O)N2C(C(=O)[O-])=C(/C=C/C[n+]3cnc(N)c(NC(=O)c4cc(=O)c(O)cn4O)c3)CSC12)c1csc(N)n1)C(=O)O (stereo partly shown) [Compound 14],0.25

# Test system: A. baumannii 52
# Experiment: as above
# Format: cell-based
# Conditions: Acinetobacter baumannii; A. baumannii 52; read-out: MIC90
# Summary of the method: as §1
row,SMILES,MIC90 [µg/mL]
1,CC(C)(O/N=C(\C(=O)N[C@@H]1C(=O)N2C(C(=O)[O-])=C(/C=C/C[n+]3cnc(N)c(NC(=O)c4cc(=O)c(O)cn4O)c3)CSC12)c1csc(N)n1)C(=O)O (stereo partly shown) [Compound 14],8

# Test system: E. coli AG100
# Experiment: as above
# Format: cell-based
# Conditions: Escherichia coli, AG100, E. coli AG100; read-out: MIC90
# Summary of the method: as §1
row,SMILES,MIC90 [µg/mL]
1,CC(C)(O/N=C(\C(=O)N[C@@H]1C(=O)N2C(C(=O)[O-])=C(/C=C/C[n+]3cnc(N)c(NC(=O)c4cc(=O)c(O)cn4O)c3)CSC12)c1csc(N)n1)C(=O)O (stereo partly shown) [Compound 14],0.25

# Test system: K. pneumoniae 2011E
# Experiment: as above
# Format: cell-based
# Conditions: Klebsiella pneumoniae, 2011E, K. pneumoniae 2011E; read-out: MIC90
# Summary of the method: as §1
row,SMILES,MIC90 [µg/mL]
1,CC(C)(O/N=C(\C(=O)N[C@@H]1C(=O)N2C(C(=O)[O-])=C(/C=C/C[n+]3cnc(N)c(NC(=O)c4cc(=O)c(O)cn4O)c3)CSC12)c1csc(N)n1)C(=O)O (stereo partly shown) [Compound 14],2

# Test system: P. aeruginosa 40
# Experiment: as above
# Format: cell-based
# Conditions: Pseudomonas aeruginosa, 40, P. aeruginosa 40; read-out: MIC90
# Summary of the method: as §1
row,SMILES,MIC90 [µg/mL]
1,CC(C)(O/N=C(\C(=O)N[C@@H]1C(=O)N2C(C(=O)[O-])=C(/C=C/C[n+]3cnc(N)c(NC(=O)c4cc(=O)c(O)cn4O)c3)CSC12)c1csc(N)n1)C(=O)O (stereo partly shown) [Compound 14],0.25
